Values quoted from earlier work as cited in US8828934B2, “Mnk kinase homologous proteins involved in the regulation of energy homeostasis and organelle metabolism” (Boehringer Ingelheim International GmbH, priority 2001, dated 2014).

Legend:
[1] = not cytotoxic up to this concentration
[2] = system: Mnk2 (Mnk2a or Mnk2b) or Mnk1; details: compound added to cell culture cells transfected with Mnk2 (Mnk2a or Mnk2b) or Mnk1

Nc1ncnc2n[nH]c(Nc3ccc(F)cc3)c12 [CGP57380]
concentration up to which not cytotoxic [1]: > 30 µM
reduction in phosphorylated eIF4E [2]: strong reduction in phosphorylated eIF4E
